Assays:
E. coli = assay: Reduction in optical density at 600 nm of E. coli cultures treated with cleaning compositions; format: cell-based; details: 250 ppm
Experimental: The lipopeptide mixture produced by B. amy can be used in environmentally-friendly cleaning compositions and to enhance antimicrobial activity of other biosurfactants. Cleaning compositions were tested for their ability to control Gram-negative E. coli. Reduction in optical density at 600 nm (OD) was measured for cultures treated with each of the following compositions: […]

Staphylococcus sp. = assay: Reduction in optical density at 600 nm of Staphylococcus sp. cultures treated with cleaning compositions; format: cell-based
Experimental: Cleaning compositions according to embodiments of the subject invention were also tested for their ability to control a Gram-positive Staphylococcus sp. Reduction in optical density at 600 nm (OD) was measured for cultures treated with each of the following compositions: […]

Row | Substance | OD600 % reduction after 2 hours (E. coli) [%] | OD600 % reduction after 2 hours (Staphylococcus sp.; 250 ppm) [%] | OD600 % reduction after 2 hours (Staphylococcus sp.; 100 ppm) [%] | OD600 % reduction after 2 hours (Staphylococcus sp.; 50 ppm) [%]
1 | linear SLP butyl ester | 91.5 | 88.1 |  | 
2 | linear SLP ethyl ester | 89.8 |  | 98.3 | 
3 | linear SLP isopropyl ester | 86.4 |  |  | 91.5

Source: US20230029570A1, “Bacillus Strain for Applications in Agriculture, Livestock Health and Environmental Protection” (Locus IP Company, LLC, priority 2020, published 2023)
